According to ChEMBL document CHEMBL1148065, “Two new flavones from Calliandra californica” (1994):
Calls of active or inactive are those of the source. The calls are words filed in the database; no cut-off is given here.

Legend:
Bacillus subtilis = experiment: Antimicrobial activity against Bacillus subtilis at 1 mg/disk; format: functional
Staphylococcus aureus = experiment: Antimicrobial activity against Staphylococcus aureus at 1 mg/disk; format: functional

Row | SMILES | Activity (Bacillus subtilis) | Activity (Staphylococcus aureus) | inhibition zone (IZ) (Bacillus subtilis) [mm] | inhibition zone (IZ) (Staphylococcus aureus) [mm]
1 | COc1ccc2c(=O)cc(-c3cc(OC)c(OC)cc3OC)oc2c1 | inactive | inactive | – | –
2 | COc1cc(O)c2c(=O)cc(-c3cc(OC)c(OC)cc3OC)oc2c1 | – | – | 11 | 8
